What was measured:
[1] = test system: PGD2 production from IgE-stimulated RBL-2H3 cells; assay: Suppressing action on PGD2 production from IgE-stimulated RBL-2H3 cells; assay type: cell-based; conditions: Rattus norvegicus, 10 min, IgE/DNP-BSA stimulated RBL-2H3 cells, read-out: PGD2 production suppression ratio
Text: (§1) 2. Suppressing Action on PGD2 and LTB4 Production from IgE-Stimulated RBL-2H3 Cells
(§2) Suppressing action on PGD2 and LTB4 production caused by IgE as an allergic stimulant was investigated by the following method. Cells of RBL-2H3, which is a rat mastocytoma cell line (purchased from ATCC), were suspended in DEMEM medium (GIBCO) containing 10% fetal bovine serum (BioFluid), inoculated to each well of 48-well culture plate at a density of 2×10^4 cells/well and cultured overnight. Then, IgE antiserum directed to dinitrophenylated BSA (henceforth DNP-BSA) was further added to each well, and the cells were cultured for 30 minutes. Then, the medium was changed to DEMEM medium containing 0.5% fetal bovine serum, a test compound was added with each well, and DNP-BSA was further added at a final concentration of 100 ng/ml as a stimulant. Ten minutes after the stimulant was added, the culture supernatant was collected, and the PGD2 concentration and LTB4 concentration in the culture supernatant were measured by using EIA kit (CAYMAN). By using a well which was not added with the stimulant as a negative control and a well which was added only with the stimulant as a positive control, suppressing ratios on mediator production were calculated from the production amounts of the mediators in the well added with the test compound using the following equation. PGD2 or LTB4 production suppression ratio=[1−(C−B)/(A−B)]×100 • A: PGD2 or LTB4 production amount of positive control • B: PGD2 or LTB4 production amount of negative control • C: PGD2 or LTB4 production amount in well added with test compound
(§3) Further, as control compounds for comparison, reference compound (1), 3-(2-cyclohexylmethyloxy-1,1′-biphenyl-5-yl)propionic acid described in WO99/19291, reference compounds (2) and (3), [2-(5,6,7,8-tetrahydro-5,5,8,8-tetramethyl-2-naphthalenyl)methyloxy-1,1′-biphenyl-5-yl]carboxylic acid [reference compound (2)] and 3-[3′-carboxy-2-(5,6,7,8-tetrahydro-5,5,8,8-tetramethyl-2naphthalenyl)methyloxy-1,1′-biphenyl-6-yl]propionic acid [reference compound (3)] described in U.S. Pat. No. 5,391,817 and Japanese Patent Unexamined Publication (Kokai) No. 7-22399, respectively, were used, and activities thereof were similarly measured.

[2] = test system: zymosan-stimulated footpad edema; assay: Mouse zymosan-stimulated footpad edema reaction; assay type: in vivo; conditions: ICR female mice, oral 0.1 to 500 mg/kg, compared with positive control group
Description: 3. Suppressing Effect on Mouse Zymosan-stimulated Footpad Edema Reaction A suppressing effect on footpad edema caused by zymosan as an inflammatory stimulant was studied by the following method. Groups of ICR female mice (6- to 7-week old) each consisting of eight mice were used for the test. A test compound was suspended or dissolved in purified water containing 0.5% methylcellulose and orally administered to the test animals at 0.1 to 500 mg/0.2 ml/kg. To the control group, purified water containing 0.5% methylcellulose was administered in a similar manner, which was not added with a test compound. One hour after the administration of the test compound, 0.02 ml of a suspension of zymosan suspended in physiological saline (Otsuka Pharmaceutical) at 1 mg/ml was subcutaneously administered to right hind leg footpad of each mouse. One and two hours after the administration of the zymosan suspension, volume of the right hind leg footpad was measured by using an apparatus for measuring a volume of mouse hind leg footpad edema (Unicom). A difference of the volume of footpad measured above and the footpad volume before the administration of the test compound measured beforehand was regarded as a volume of the edema. For the volume of the edema at 1 hour or 2 hours after the zymosan administration, a graph was prepared by indicating time in abscissa and the edema volume in ordinate, and an edema volume AUC (area under the curve) was obtained up to 2 hours by calculation using the following equation. Edema volume AUC (1·hour)=1/2×1×A+1×(A+B)/2 • A: Edema volume 1 hour after zymosan administration • B: Edema volume 2 hour after zymosan administration A suppression ratio on edema of test compound was obtained by calculation using the following equation. Edema suppression ratio (%)=[1−B/A]×100 • A: Edema volume AUC of positive control • B: Edema volume AUC of test compound administered group (2) Measurement Results

[3] = test system: PGE2 production from IL-1β-stimulated MG-63 cells; assay: Suppressing action on PGE2 production from IL-1β-stimulated MG-63 cells; assay type: cell-based; conditions: Homo sapiens, IL-1β 1 ng/ml, 18 hours, read-out: PGE2 production suppression ratio
In short: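 Human osteosarcoma MG-63 cells (2×10^4/well) switched to 0.5% FBS medium, treated with compound, then stimulated with IL-1β at 1 ng/ml final for 18 h. Supernatant PGE2 measured by EIA; suppression ratio calculated against stimulated and unstimulated wells.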

[4] = test system: LTB4 production from IgE-stimulated RBL-2H3 cells; assay: Suppressing action on LTB4 production from IgE-stimulated RBL-2H3 cells; assay type: cell-based; conditions: Rattus norvegicus, 10 min, IgE/DNP-BSA stimulated RBL-2H3 cells, read-out: LTB4 production suppression ratio
Text: as §1, §2, §3

SMILES | inhibition at 0.4 µM [1] | suppression of footpad edema caused by zymosan [2] | inhibition at 0.4 µM [3] | inhibition at 0.4 µM [4]
O=C(O)CCc1ccc(OCC2CCCC2)c(-c2ccc3c(O)cccc3c2)c1 [Compound 010, 3-[4-cyclopentylmethyloxy-3-(5-hydroxynaphthalen-2-yl)phenyl]propionic acid] | ≥ 50% | suppressed footpad edema | ≥ 50% | ≥ 50%
O=C(O)CCc1ccc(OCC2CCCCC2)c(-c2ccc3ccccc3c2)c1 [Compound 066, 3-[4-cyclohexylmethyloxy-3-(naphthalen-2-yl)phenyl]propionic acid] | ≥ 50% | suppressed footpad edema | ≥ 50% | ≥ 50%
Nc1cc(CCC(=O)O)cc(-c2ccc3ccccc3c2)c1OCC1CCCC1 [Compound 095, 3-[3-amino-4-cyclopentylmethyloxy-5-(naphthalen-2-yl)phenyl]propionic acid] | ≥ 50% | suppressed footpad edema | ≥ 50% | ≥ 50%
COC(=O)CCc1ccc(OCC2CCCC2)c(-c2ccc3[nH]ccc3c2)c1 [Compound 099, methyl 3-[4-cyclopentylmethyloxy-3-(1H-indol-5-yl)phenyl]propionate] | ≥ 50% | suppressed footpad edema | ≥ 50% | ≥ 50%
O=C(O)CCc1ccc(OC2CCCC2)c(-c2ccc3[nH]ccc3c2)c1 [Compound 102, 3-[4-cyclopentyloxy-3-(1H-indol-5-yl)phenyl]propionic acid] | ≥ 50% | suppressed footpad edema | ≥ 50% | ≥ 50%
O=C(O)CCc1ccc(OC2CCCCC2)c(-c2ccc3[nH]ccc3c2)c1 [Compound 104, 3-[4-cyclohexyloxy-3-(1H-indol-5-yl)phenyl]propionic acid] | ≥ 50% | suppressed footpad edema | ≥ 50% | ≥ 50%
Cn1ccc2cc(-c3cc(CCC(=O)O)ccc3OC3CCCCC3)ccc21 [Compound 110, 3-[4-cyclohexyloxy-3-(1-methyl-1H-indol-5-yl)phenyl]propionic acid] | ≥ 50% | suppressed footpad edema | ≥ 50% | ≥ 50%
O=C(O)CCc1ccc(OCc2ccccc2F)c(-c2ccc3[nH]ccc3c2)c1 [Compound 142, 3-[4-(2-fluorophenylmethyloxy)-3-(1H-indol-5-yl)phenyl]propionic acid] | ≥ 50% | suppressed footpad edema | ≥ 50% | ≥ 50%
O=C(O)CCc1ccc(OCc2ccccc2Cl)c(-c2ccc3[nH]ccc3c2)c1 [Compound 148, 3-[4-(2-chlorophenylmethyloxy)-3-(1H-indol-5-yl)phenyl]propionic acid] | ≥ 50% | suppressed footpad edema | ≥ 50% | ≥ 50%
O=C(O)CCc1ccc(OCc2cccc(Cl)c2)c(-c2ccc3[nH]ccc3c2)c1 [Compound 150, 3-[4-(3-chlorophenylmethyloxy)-3-(1H-indol-5-yl)phenyl]propionic acid] | ≥ 50% | suppressed footpad edema | ≥ 50% | ≥ 50%
O=C(O)CCc1ccc(OCc2ccc(Cl)cc2)c(-c2ccc3[nH]ccc3c2)c1 [Compound 152, 3-[4-(4-chlorophenylmethyloxy)-3-(1H-indol-5-yl)phenyl]propionic acid] | ≥ 50% | suppressed footpad edema | ≥ 50% | ≥ 50%
O=C(O)CCc1ccc(OCc2ccccc2Br)c(-c2ccc3[nH]ccc3c2)c1 [Compound 154, 3-[4-(2-bromophenylmethyloxy)-3-(1H-indol-5-yl)phenyl]propionic acid] | ≥ 50% | suppressed footpad edema | ≥ 50% | ≥ 50%
O=C(O)CCc1ccc(OCc2ccc(-c3ccccc3)cc2)c(-c2ccc3[nH]ccc3c2)c1 [Compound 179, 3-{4-[(biphenyl-4-yl)methyloxy]-3-(1H-indol-5-yl)phenyl}propionic acid] | ≥ 50% | suppressed footpad edema | ≥ 50% | ≥ 50%
Cc1ccc(CCOc2ccc(CCC(=O)O)cc2-c2ccc3[nH]ccc3c2)cc1 [Compound 204, 3-{3-(1H-indol-5-yl)-4-[2-(4-methylphenyl)ethyloxy]phenyl}propionic acid] | ≥ 50% | suppressed footpad edema | ≥ 50% | ≥ 50%
Cn1ccc2cc(-c3cc(CCC(=O)O)ccc3OCC3CCCC3)ccc21 [Compound 235, 3-[4-cyclopentylmethyloxy-3-(1-methyl-1H-indol-5-yl)phenyl]propionic acid] | ≥ 50% | suppressed footpad edema | ≥ 50% | ≥ 50%
CCn1ccc2cc(-c3cc(CCC(=O)O)ccc3OC3CCCC3)ccc21 [Compound 246, 3-[4-cyclopentyloxy-3-(1-ethyl-1H-indol-5-yl)phenyl]propionic acid] | ≥ 50% | suppressed footpad edema | ≥ 50% | ≥ 50%
Nc1nc2ccc(-c3cc(CCC(=O)O)ccc3OC3CCCCC3)cc2s1 [Compound 295, 3-[3-(2-aminobenzothiazol-6-yl)-4-cyclohexyloxyphenyl]propionic acid] | ≥ 50% | suppressed footpad edema | ≥ 50% | ≥ 50%

Reference: US6867320B2, “Substituted phenylalkanoic acid derivatives and use thereof” (Asahi Kasei Pharma Corporation, priority 2002, dated 2005)
